Test results reported in patent publication US20130296436A1, “AMIDINE COMPOUNDS AND USE THEREOF FOR PLANT DISEASE CONTROL” (SUMITOMO CHEMICAL COMPANY, LIMITED, priority 2010, published 2013).

System: Pyrenophora teres
Assay: Test Example 8: barley Pyrenophora teres, foliar application before inoculation, 50 ppm
Type: in vivo
Conditions: barley (Nishinohoshi), 50 ppm foliar application, inoculated two days after, 3 days + 7 days

CCN(C)/C=N/c1cc(C)c(OCC(F)(F)C(F)(F)C(F)(F)C(F)(F)C(F)(F)F)cc1C [present compound 7]
lesion area on the treated plant relative to the area of lesions on an untreated plant: ≤ 30%
